Patent publication US6989270B1, “Using polyamide nucleic acid oligomers to engender a biological response” (Mayo Foundation for Medical Education and Research, priority 1997, dated 2006)

Legend:
Type in all cases: in vivo, rat
mu-1 receptor (MU1R) = assay: Tail flick test of MOR-mediated anti-nociception in PNA-treated rats
Description: The injection of MOR into rats produces a potent anti-nociceptive response. This response is mediated by specific MOR receptors and is inhibited by naloxone. A very sensitive and reliable tail flick test was devised and used to measure the anti-nociceptive effects of MOR (D'Amour F. E. and Smith D. L, J. Pharm. Exp. Therap. 72:74-79 (1941)).
MU1R-PNA, NTR1-PNA, and ACSF treated as well as untreated rats were analyzed using the MOR-specific tail flick test. One day after the last treatment, each rat was analyzed as follows. Thirty minutes prior to testing, a pre-drug latency measurement was made by placing the tail of the restrained rat in oil maintained at a temperature of 60° C. and recording the time elapsed before the rat flicked its tail. After making this measurement, an appropriate dose of MOR (5 mg/kg of body weight) at a volume of about 200 μl was injected i.p. Thirty minutes after administering MOR, the restrained rat's tail was again placed in the oil maintained at 60° C. and the latency between the time the tail was placed in the oil and the time the rat flicked its tail was measured. […] Tail flick tests were scored as the percent of MPE and calculated using the following equation: % MPE=[(post-drug latency−pre-drug latency)/(cut-off−pre-drug latency)]×100; where the cut-off is 12 seconds. […] This average for untreated control rats was used to set the baseline A MPE value to 100. All test situations were compared to this baseline response value derived from MOR responsive untreated controls. To test the significance, data were analyzed using the Student's t-test with p<0.05 being considered significant.
(§1) AS-NTR1-PNA, mismatch-AS-NTR1-PNA, and MU1R-PNA were injected intraperitoneally (10 mg/kg) independently, into separate groups of male Sprague-Dawley rats (Harlan, Prattville, Ala.). The sense-NTR1-PNA oligomer, however, was microinjected directly into the periaqueductal gray (PAG; 5 μg), the major area in the brain involved with perception of pain (nociception). […] Thirty minutes after receiving NT, animals were scored for anti-nociception (hot plate at 52° C.) and hypothermia (rectal probe). Again, anti-nociception scores were calculated as percent of maximum possible effect (% MPE) with the following equation: % MPE=[(post-drug latency time minus pre-drug latency time)/(cut-off time minus pre-drug latency time)]×100; where the cut-off time (i.e., the time when the animal was removed from the device) was 30 seconds for a hot plate test and 12 seconds for a tail flick test. Statistical analysis was done using the rank sum test.

[1] = test system: neurotensin receptor-1 (NTR1); assay: NT-induced hypothermia (rectal body temperature) in PNA-treated rats
Description: NTR1-PNA, MU1R-PNA, and ACSF treated as well as untreated rats were analyzed using the hot plate test for NT. One day after the last treatment, each rat was analyzed as follows. Fifteen minutes prior to testing, a pre-drug latency measurement was made by placing the rat on a hot plate maintained at a temperature of 52±0.15° C. and recording the time elapsed before the rat licked either of its hindpaws. In addition, the temperature of the rat was taken using a thermister probe inserted 3 cm in the rectum to determine the pre-drug body temperature (BT). After making these measurement, an appropriate dose of NT (18 nmol) at a volume of about 0.5 ul was administered into the PAG as described above. Thirty minutes after administering NT, the rat was again placed on a hot plate maintained at a temperature of 52±0.15° C. and the latency between the time the rat was placed on the surface and the time it licked either of its hindpaws was measured. […] Hot plate tests were scored as the percent of maximum possible effect (% MPE) and calculated using the following equation: % MPE=[(post-drug latency−pre-drug latency)/(cut-off−pre-drug latency)]×100; where the cut-off is 30 seconds. […] This average for untreated control rats was used to set the baseline MPE value to 100. Immediately after the 30 second hot plate test, BT was taken to measure NT-induced hypothermia using a thermister probe inserted 3 cm in the rectum. […] All test situations were compared to these baseline values derived from NT responsive untreated controls.
as §1

[2] = test system: neurotensin receptor-1 (NTR1); assay: Hot plate test of NT-mediated anti-nociception in PNA-treated rats
[3] = intraperitoneal dose-response, one batch of PNA

“NTR1-PNA: 12-mer antisense PNA oligomer to rat NTR1 coding region, 5′-CATTGCTCAAAC-3′ (SEQ ID NO: 1) (all peptide nucleic acid (PNA))” was tested, and the “anti-nociception score (tail flick) after MOR” value (mu-1 receptor (MU1R); 10 mg/kg i.p. treated animals lacking NT anti-nociception, MOR 5 mg/kg i.p.) was 95 % MPE, the “MPE (tail flick) response to MOR challenge as percent of baseline response” value (mu-1 receptor (MU1R); PNA injected into PAG on days -4, -2, 0, MOR 5 mg/kg i.p.) was “indistinguishable from baseline responses” and the “Responsiveness: Morphine (anti-nociception)” value (mu-1 receptor (MU1R); intraperitoneal administration, Table VI) was “normal”. For the same substance, the “body temperature change in response to NT” value ([1]; 10 mg/kg intraperitoneally, NT 18 nmol 24 hours later) was −0.5 °C, the “time until which NT-mediated hypothermia remained significantly reduced” value ([1]; PNA injected into PAG on days -4, -2, 0) was “day six” and the “ED50 for reducing NT hypothermia” value [1, 3] was 3.2 mg/kg. For the same substance, the “duration of complete lack of NT responsiveness” value ([2]; after single oral 10 mg/kg) was “at least 48 hours”, the “ED50 for reducing NT anti-nociception” value [2, 3] was 2.6 mg/kg and the “responsiveness to NT challenge (anti-nociception and hypothermia)” value ([2]; one day after single i.p. injection of 3 mg/kg) was “unable to respond to NT challenge”. For the same substance, the NT responsiveness ([2]; rats given single oral 10 mg/kg, Table III) was “LOST” and the “hypothermic and anti-nociceptive responses to NT” value ([2]; twelve hours after 10 mg/kg by gastric intubation (oral), nine rats) was “either completely abolished (8/9) or nearly completely abolished (1/9)”.
